Experimental data from patent US9868720B2 (Genentech, Inc., priority 2013, dated 2018).

Test system: phosphorylation of JNK in HEK293 cells stably transfected with doxycycline-inducible Flag-tagged full length DLK
Assay: pJNK Cell based assay
Details: Homo sapiens; HEK293 cells with doxycycline-induced DLK, 5.5 hours compound treatment, pJNK mean intensity by imaging; read-out: p-JNK 293 IC50
Experimental: pJNK Cell based assay:HEK293 cells stably transfected with doxycycline-inducible N-terminally Flag-tagged full length DLK were plated at density of 7500 cells/well (40 μL) in 384-well Greiner bio-one μclear plate coated with Poly-D-Lysine. The cells were incubated at 37° C. in DMEM (Dulbecco's Modified Eagle Medium) media containing 10% FBS and 2 mM L-Glutamine for 20-24 hours. 5 μL of 60 μM doxycycline was added to the cells to initiate DLK expression for 20 hours at 37° C. No doxycycline was added for the negative control wells. 5 μL of compounds of formula I in various concentrations in DMEM were added to the cells and the compound treated cell culture was incubated at 37° C. for 5.5 hours prior to fixation with addition of 50 μL 4% paraformaldehyde. The wells were washed with 40 μL PBS wash twice followed by permeabilization with 0.1% Triton X-100. The cells were washed with 40 μL PBS wash twice again prior to incubation in 20 μL SuperBlock (Thermo Scientific) for 1 hour at ambient temperature. The primary antibodies (1:3000 mouse anti-Flag and 1:1000 rabbit anti-pJNK in SuperBlock) were incubated with the fixed cells overnight at 4° C. The cells were washed with 40 μL PBS twice before the addition of secondary antibodies (Anti-mouse labeled with AlexaFluor555 and anti-rabbit labeled with AlexaFluor488 in 1:2000 dilution in SuperBlock). The secondary antibodies were incubated at ambient temperature for 2 hours and were protected from light. The cells were washed with 40 μL PBS before the addition of 20 μL Hoechst 33342 (1:5000 in PBS). The plate was sealed and stored at 4° C. in the dark until imaging analyses on Opera High Content Screening System (Evotec). Three data points were reported: pJNK (mean intensity inside the search stencil), DLK (mean intensity of the 1% brightest pixels inside the search stencil) and nuclear area.

In the case of `Cc1c[nH]c(CN2CCC(c3cc(Nc4cc(C(F)(F)F)ccn4)nc(N4CC(F)(F)C4)n3)C2)n1` (stereo not shown) [{2-(3,3-Difluoro-azetidin-1-yl)-6-[1-(4-methyl-1H-imidazol-2-ylmethyl)-pyrrolidin-3-yl]-pyrimidin-4-yl}-(4-trifluoromethyl-pyridin-2-yl)-amine], the IC50 is reported as 418 nM.

`Cc1ccnc(Nc2cc(C3CCCN(C(=O)c4ccccc4)C3)nc(N3CCCC3)n2)c1` (stereo not shown) [{3-[6-(4-Methyl-pyridin-2-ylamino)-2-pyrrolidin-1-yl-pyrimidin-4-yl]-piperidin-1-yl}-phenyl-methanone] was tested, and the IC50 was 77.9 nM.

In the case of `FC(F)(F)c1ccnc(Nc2cc(C3CCNCC3)nc(N3CC4CC3CO4)n2)c1` (stereo not shown) [[2-(2-Oxa-5-aza-bicyclo[2.2.1]hept-5-yl)-6-piperidin-4-yl-pyrimidin-4-yl]-(4-trifluoromethyl-pyridin-2-yl)-amine], the IC50 is reported as 389 nM.

`FC(F)(F)c1ccnc(Nc2cc(C3CCOCC3)nc(N3CC4CC3CO4)n2)c1` (stereo not shown) [[2-(2-Oxa-5-aza-bicyclo[2.2.1]hept-5-yl)-6-(tetrahydro-pyran-4-yl)-pyrimidin-4-yl]-(4-trifluoromethyl-pyridin-2-yl)-amine] gave an IC50 of 268 nM.

In the case of `FC1(F)CCN(c2nc(Nc3cc(Cl)ccn3)cc(C3CCNCC3)n2)C1` [(4-Chloro-pyridin-2-yl)-[2-(3,3-difluoro-pyrrolidin-1-yl)-6-piperidin-4-yl-pyrimidin-4-yl]-amine], the IC50 is reported as 113 nM.

For `Cc1nccc(C2CCN(c3nc(Nc4cc(C(F)(F)F)ccn4)cc(C4CCOCC4)n3)C2)n1` (stereo not shown) [[2-[3-(2-Methyl-pyrimidin-4-yl)-pyrrolidin-1-yl]-6-(tetrahydro-pyran-4-yl)-pyrimidin-4-yl]-(4-trifluoromethyl-pyridin-2-yl)-amine], the IC50 was 227 nM.

For `N#CC1(C(=O)N2CCC(c3cc(Nc4cc(C(F)(F)F)ccn4)nc(N4CCC(F)(F)C4)n3)C2)CC1` (stereo not shown) [1-{3-[2-(3,3-Difluoro-pyrrolidin-1-yl)-6-(4-trifluoromethyl-pyridin-2-ylamino)-pyrimidin-4-yl]-pyrrolidine-1-carbonyl}-cyclopropanecarbonitrile], the IC50 was 584 nM.

Compound `FC(F)(F)c1ccnc(Nc2cc(C3CCCNC3)nc(-c3ccccc3)n2)c1` (stereo not shown) [(2-Phenyl-6-piperidin-3-yl-pyrimidin-4-yl)-(4-trifluoromethyl-pyridin-2-yl)-amine] has an IC50 of 1000 nM.

Work on `FC(F)(F)c1ccnc(Nc2cc(C3CCOCC3)nc(N3CCc4nc[nH]c4C3)n2)c1` [[2-(3,4,6,7-Tetrahydro-imidazo[4,5-c]pyridin-5-yl)-6-(tetrahydro-pyran-4-yl)-pyrimidin-4-yl]-(4-trifluoromethyl-pyridin-2-yl)-amine] yielded an IC50 of 240 nM.

`CN(CCO)c1nc(Nc2cc(C(F)(F)F)ccn2)cc(C2CCNC2)n1` (stereo not shown) [2-{Methyl-[4-pyrrolidin-3-yl-6-(4-trifluoromethyl-pyridin-2-ylamino)-pyrimidin-2-yl]-amino}-ethanol] gave an IC50 of 193 nM.
